Results: patent publication US20240239771A1, “BACTERIAL EFFLUX PUMP INHIBITORS” (priority 2020, published 2024)
Where a name gives a salt, the structure may show the parent alone. Read-outs that look alike come from different tables or passages of the source.

Key:
[1] = tested on: Pseudomonas aeruginosa ATCC 27853; assay: Intrinsic MIC assay (CLSI broth microdilution); format: cell-based
Description: MIC assays were conducted in accordance with Clinical and Laboratory Standards Institute (CLSI) guidelines for broth microdilution. A 96-well plate containing cation-adjusted Mueller-Hinton (CAMH broth with 2-fold serial dilution of compounds was inoculated with log-phase bacterial at 5×10^5 CFU/mL. The final volume in each well was 100 μL. Each compound was tested in duplicate. The microtiter plates were incubated in an aerobic environment for 18 hours at 37° C. Then the bacterial growth was tested by reading the plate with a VersaMax plate reader (Molecular Devices, Inc.) at 600 nm. The MIC was defined as the lowest compound concentration that inhibited 90% of bacteria growth.
The intrinsic MIC of the experimental EPIs was tested with the method described. The 2-fold serial dilution begins with 100 μg/mL of tested compound in the first column of the 96-well plates. The following Gram-negative bacterial strain was included in these assays: Pseudomonas aeruginosa ATCC 27853.

[2] = tested on: Pseudomonas aeruginosa ATCC 27853; assay: Standard EPI assay: MIC of test antibiotic in absence and presence of EPI; format: cell-based; conditions: for Enhanced Antibiotic's Activity (fold increase), Ceftazidime: ceftazidime with compound at 6.25 μg/mL, relative to MIC without EPI (2 μg/mL); for Enhanced Antibiotic's Activity (fold increase), Doxycycline: doxycycline with compound at 6.25 μg/mL, relative to MIC without EPI (32 μg/mL); for Enhanced Antibiotic's Activity (fold increase), Levofloxacin: levofloxacin with compound at 6.25 μg/mL, relative to MIC without EPI (1 μg/mL)
Description: The EPI assay for the purposes of these studies represents a MIC assay in which the MIC of the antibiotic against the bacteria is tested in the presence of an experimental efflux pump inhibitor (EPI). The highest concentration of the EPI present in the assay typically is ½ of the intrinsic MIC of the compound. If the intrinsic MIC of the EPI is greater than 100 μg/mL, the EPI assay was tested with 50 μg/mL. Using serial dilutions of the EPI, its enhancement of antibiotic activity was then evaluated. The relative EPI activity was decided by comparing the MIC of the antibiotic in the presence of the EPI compound with the intrinsic MIC of the antibiotic alone.
The impact of the EPIs on the MIC values of three test antibiotics (levofloxacin, ceftazidime and doxycycline) against P. aeruginosa ATCC 27853 were evaluated using our standard EPI assay. All three antibiotics levofloxacin, ceftazidime and doxycycline are known substrates of efflux pumps in P. aeruginosa, and are thus well-suited to be test antibiotics to assay for EPI activity.
In our standard EPI assay, the MIC of the test antibiotic is determined in the absence and presence of sub-inhibitory concentrations of the EPI. […] The MIC of levofloxacin against P. aeruginosa ATCC 27853 in the absence of EPI is 1 μg/mL. […] Similarly, the MIC of ceftazidime against P. aeruginosa ATCC 27853 in the absence of EPI is 2 μg/mL. In the presence of 6.25 μg/mL of the Example 4, the MIC of ceftazidime was reduced to 0.5 μg/mL, a 4-fold reduction. […] For all the examples in Table 1, the potentiation activities are determined at 6.25 μg/mL.

[3] = ATCC27853, read-out: Intrinsic MIC of Compound
[4] = ATCC27853, P. aeruginosa ATCC 27853, compound alone, read-out: Intrinsic MIC of Compound

SMILES | MIC [1, 3] | Enhanced Antibiotic's Activity (fold increase), Ceftazidime [2] | Enhanced Antibiotic's Activity (fold increase), Doxycycline [2] | Enhanced Antibiotic's Activity (fold increase), Levofloxacin [2] | MIC [1, 4]
NCC(O)C[C@H](N)CNC(=O)c1[nH]c2ccccc2c1Sc1cccc(F)c1 (stereo partly drawn) [Example 29, N-((2S)-2,5-diamino-4-hydroxypentyl)-3-((3-fluorophenyl)thio)-1H-indole-2-carboxamide hydrogen chloride salt] | 200 µg/mL | 2 fold | 64 fold | 32 fold | 
NCC(O)C[C@H](N)CNC(=O)c1[nH]c2ccccc2c1C1CCCCC1 (stereo partly drawn) [Example 15, 3-cyclohexyl-N-((2S)-2,5-diamino-4-hydroxypentyl)-1H-indole-2-carboxamide hydrogen chloride salt] | 50 µg/mL | 4 fold | 32 fold | 32 fold | 
NC[C@H]1CN[C@H](CNC(=O)c2[nH]c3ccccc3c2-c2ccc(F)cc2)[C@@H]1O [Example 26, N-(((2R,3R,4S)-4-(aminomethyl)-3-hydroxypyrrolidin-2-yl)methyl)-3-(4-fluorophenyl)-1H-indole-2-carboxamide hydrogen chloride salt] | > 100 µg/mL | 2 fold | 32 fold | 16 fold | 
NCC[C@@H](O)[C@@H](N)CNC(=O)c1[nH]c2ccccc2c1-c1ccc(F)cc1 [Example 1, N-((2S,3R)-2,5-diamino-3-hydroxypentyl)-3-(4-fluorophenyl)-1H-indole-2-carboxamide hydrogen chloride salt] | > 100 µg/mL | 1 fold | 16 fold | 8 fold | 
NCC(O)[C@H](N)CNC(=O)c1[nH]c2ccccc2c1C1CCCC1 (stereo partly drawn) [Example 36, 3-cyclopentyl-N-((2R)-2,4-diamino-3-hydroxybutyl)-1H-indole-2-carboxamide] |  | 2 fold | 32 fold | 8 fold | 100 µg/mL
N#Cc1ccc(-c2c(C(=O)NC[C@@H](N)CC(O)CN)[nH]c3ccc(F)cc23)cc1 (stereo partly drawn) [Example 9, 3-(4-cyanophenyl)-N-((2S)-2,5-diamino-4-hydroxypentyl)-5-fluoro-1H-indole-2-carboxamide hydrogen chloride salt] | > 100 µg/mL | 2 fold | 32 fold | 32 fold | 
NCC(O)[C@H](N)CNC(=O)c1[nH]c2ccccc2c1-c1ccc(F)cc1 (stereo partly drawn) [Example 35, N-((2R)-2,4-diamino-3-hydroxybutyl)-3-(4-fluorophenyl)-1H-indole-2-carboxamide] |  |  |  | 4 fold | 200 µg/mL
NCCC(O)[C@@H](N)CNC(=O)c1[nH]c2ccccc2c1-c1ccccc1 (stereo partly drawn) [Example 2, N-((2S)-2,5-diamino-3-hydroxypentyl)-3-phenyl-1H-indole-2-carboxamide hydrogen chloride salt] | > 100 µg/mL |  | 16 fold | 8 fold | 
NCCC(O)[C@@H](N)CNC(=O)c1[nH]c2ccccc2c1C1CCC(F)(F)CC1 (stereo partly drawn) [Example 6, N-((2S)-2,5-diamino-3-hydroxypentyl)-3-(4,4-difluorocyclohexyl)-1H-indole-2-carboxamide hydrogen chloride salt] | 100 µg/mL | 4 fold | 16 fold | 64 fold | 
NCCC(O)[C@@H](N)CNC(=O)c1[nH]c2ccc(F)cc2c1C1CCCCC1 (stereo partly drawn) [Example 5, 3-cyclohexyl-N-((2S)-2,5-diamino-3-hydroxypentyl)-5-fluoro-1H-indole-2-carboxamide hydrogen chloride salt] | 50 µg/mL | 16 fold | 32 fold | 32 fold | 
NCCC(O)[C@@H](N)CNC(=O)c1cc2cccc(-c3ccc(F)cc3)c2[nH]1 (stereo partly drawn) [Example 28, N-((2S)-2,5-diamino-3-hydroxypentyl)-7-(4-fluorophenyl)-1H-indole-2-carboxamide hydrogen chloride salt] | 50 µg/mL |  |  | 16 fold | 
NCCOC[C@H](N)CNC(=O)c1cc2ccc(-c3ccccc3)cc2[nH]1 [Example 32, (R)—N-(2-amino-3-(2-aminoethoxy)propyl)-6-phenyl-1H-indole-2-carboxamide hydrogen chloride salt] | > 200 µg/mL |  |  | 4 fold | 
NCCC(O)[C@@H](N)CNC(=O)c1[nH]c2ccccc2c1C1CCCC1 (stereo partly drawn) [Example 4, 3-cyclopentyl-N-((2S)-2,5-diamino-3-hydroxypentyl)-1H-indole-2-carboxamide hydrogen chloride salt] | > 100 µg/mL | 4 fold | 32 fold | 32 fold | 
N#Cc1ccc(-c2c(C(=O)NC[C@@H](N)CC(O)CN)[nH]c3ccccc23)cc1 (stereo partly drawn) [Example 11, 3-(4-cyanophenyl)-N-((2S)-2,5-diamino-4-hydroxypentyl)-1H-indole-2-carboxamide hydrogen chloride salt] | > 100 µg/mL | 1 fold | 16 fold | 16 fold | 
NCC1(O)CN[C@H](CNC(=O)c2[nH]c3ccc(F)cc3c2-c2ccccc2Cl)C1 (stereo partly drawn) [Example 27, N-(((2S)-4-(aminomethyl)-4-hydroxypyrrolidin-2-yl)methyl)-3-(2-chlorophenyl)-5-fluoro-1H-indole-2-carboxamide hydrogen chloride salt] | > 100 µg/mL |  |  | 1 (1) fold | 
NC[C@@H](O)C[C@H](N)CNC(=O)c1cc2ccc(-c3ccc(F)cc3)cc2[nH]1 [Example 30, 6-(4-fluorophenyl)-N-((2S)-2,5-diamino-4-hydroxypentyl)-1H-indole-2-carboxamide hydrogen chloride salt] | 50 µg/mL |  |  | 16 fold | 
